Earlier results on 7 compounds are cited in patent publication US7601707B1, “Method for instantly relieving tissue inflammation” (priority 2003, dated 2009).

Settings in the first data set: not given
For `C[C@@H]1C[C@H]2[C@@H]3CCC4=CC(=O)C=C[C@]4(C)[C@@]3(F)[C@@H](O)C[C@]2(C)[C@@]1(O)C(=O)CO` [Dexamethasone], the water solubility entry is on record as “very water-soluble”.

The conditions of a further data set: in vivo.
Take `CCCCN1CCCCC1C(=O)Nc1c(C)cccc1C` (stereo not drawn) [Bupivicaine]: the Half-life is 3.5 h.

With `Cc1cccc(C)c1NC(=O)C1CCCCN1C` (stereo not drawn) [Mepivicaine 2%, Mepivicaine], the Half-life was 1.92 h.

As for `CCCN(CC)C(CC)C(=O)Nc1c(C)cccc1C` (stereo not drawn) [Etidocaine], the Half-life is 2.58 h.

As for `CCCNC(C)C(=O)Nc1c(C)csc1C(=O)OC` (stereo not drawn) [Articaine], the Half-life was 0.333 h.

On to `CCCNC(C)C(=O)Nc1ccccc1C` (stereo not drawn) [Prilocaine], for which the Half-life was 1.5 h.

The conditions of a further data set: dose at which some people begin to feel toxic systemic effects; not considered lethal.
For the compound `CCCCN1CCCCC1C(=O)Nc1c(C)cccc1C` (stereo not drawn) [Bupivicaine], the “Max dose Mg/Kg” value is listed as 1.3 Mg/Kg.

`CCN(CC)CC(=O)Nc1c(C)cccc1C` [Lidocaine]: the “Max dose Mg/Kg” value is 7.0 Mg/Kg.

With `Cc1cccc(C)c1NC(=O)C1CCCCN1C` (stereo not drawn) [Mepivicaine 2%, Mepivicaine], the “Max dose Mg/Kg” value is 6.6 Mg/Kg.

With `CCCN(CC)C(CC)C(=O)Nc1c(C)cccc1C` (stereo not drawn) [Etidocaine], the “Max dose Mg/Kg” value was 8.0 Mg/Kg.

For the compound `CCCNC(C)C(=O)Nc1c(C)csc1C(=O)OC` (stereo not drawn) [Articaine], the “Max dose Mg/Kg” value is on record as 7.0 Mg/Kg.

For the compound `CCCNC(C)C(=O)Nc1ccccc1C` (stereo not drawn) [Prilocaine], the “Max dose Mg/Kg” value is on record as 8.0 Mg/Kg.
